Laboratory results as given in the supplement of paper PMC10307832.

Tests used:
Test in all cases: relative viability (nuclei count vs DMSO), 5 days (fraction); higher = more cells survive
[1] = compound: CCCS(=O)(=O)Nc1ccc(F)c(C(=O)c2c[nH]c3ncc(-c4ccc(Cl)cc4)cc23)c1F [Vemurafenib] + CC1(C)CCC(c2ccc(Cl)cc2)=C(CN2CCN(c3ccc(C(=O)NS(=O)(=O)c4ccc(N[C@H](CCN5CCOCC5)CSc5ccccc5)c(S(=O)(=O)C(F)(F)F)c4)cc3)CC2)C1 [Navitoclax] (partner 0.5 µM)
Outline: (§1)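 Lung cancer cell lines, seeded in 1536-well plates, were treated the following day by pin tool with a single drug or with five library-drug doses (not always all listed) in √10 steps on top of a fixed anchor-drug dose. Cells were fixed and nuclei stained in one step after 5 days, and nuclei were counted. Relative viability is the nuclei count for treated wells divided by that for vehicle wells, reported as medians of duplicate plates.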

[2] = compound: COc1cccc2cc(-c3nc([C@H]4CC[C@H](C(=O)O)CC4)n4ncnc(N)c34)[nH]c12 [OSI-027] + Nc1ncn([C@H]2C[C@H](O)[C@@H](CO)O2)c(=O)n1 [Decitabine] (partner 2 µM)
Outline: as §1

[3] = compound: Cc1nc(NC(=O)N2CCC[C@H]2C(N)=O)sc1-c1ccnc(C(C)(C)C(F)(F)F)c1 [Alpelisib] + CC(C)C[C@H](NC(=O)[C@H](Cc1ccccc1)NC(=O)c1cnccn1)B(O)O [Bortezomib] (partner 0.002 µM)
Outline: as §1

[4] = compound: Cc1nc(NC(=O)N2CCC[C@H]2C(N)=O)sc1-c1ccnc(C(C)(C)C(F)(F)F)c1 [Alpelisib] + O=C(CCCCCCC(=O)Nc1ccccc1)NO [Vorinostat] (partner 1 µM)
Outline: as §1

Cell Line	relative viability ([1]; first compound 0.03162 µM)	relative viability ([1]; first compound 0.1 µM)	relative viability ([1]; first compound 1 µM)	relative viability ([2]; first compound 0.01 µM)	relative viability ([2]; first compound 0.03162 µM)	relative viability ([2]; first compound 0.1 µM)	relative viability ([2]; first compound 0.3162 µM)	relative viability ([2]; first compound 1 µM)	relative viability ([3]; first compound 0.04 µM)	relative viability ([3]; first compound 0.1265 µM)	relative viability ([3]; first compound 0.4 µM)	relative viability ([3]; first compound 1.265 µM)	relative viability ([3]; first compound 4 µM)	relative viability ([4]; first compound 0.04 µM)	relative viability ([4]; first compound 0.1265 µM)	relative viability ([4]; first compound 0.4 µM)	relative viability ([4]; first compound 1.265 µM)	relative viability ([4]; first compound 4 µM)	relative viability ([1]; first compound 0.3162 µM)
HCC-366	0.997	0.983	1.03	0.345	0.367	0.381	0.265	0.228	0.974	1.05	1.02	0.82	0.419	0.429	0.356	0.353	0.208	0.156	–
HCC-827	0.967	–	1.02	0.304	0.291	0.3	0.329	0.277	1.1	0.904	1.28	1.02	0.942	0.899	0.707	0.495	0.856	0.647	1
HOP-62	0.939	1.12	1.05	0.216	0.231	0.252	0.257	0.214	0.749	0.397	0.986	0.811	0.807	0.665	0.558	0.683	0.456	0.491	0.966
IA-LM	0.643	0.806	0.665	–	–	–	–	–	0.985	0.794	0.794	0.698	0.728	0.882	–	1.32	0.92	0.867	0.794
LC-2-ad	0.457	0.422	0.46	0.827	0.842	0.779	0.735	0.578	1.05	1.01	1.09	0.955	0.844	0.664	0.721	0.744	0.575	0.496	0.535
LCLC-103H	–	–	–	0.748	0.732	0.707	0.598	0.783	0.819	0.964	1.03	1.05	0.831	0.74	0.744	0.801	0.669	0.624	–
LK-2	0.736	0.963	0.529	0.207	0.251	0.231	0.234	0.142	–	–	–	–	–	0.261	0.264	0.261	0.234	0.306	0.753
NCI-H358	–	–	–	0.191	0.182	0.199	0.232	0.178	–	–	–	–	–	0.686	0.563	0.768	0.428	0.321	–
NCI-H522	–	–	–	0.705	0.724	0.626	0.629	0.582	–	–	–	–	–	0.79	0.977	1.04	0.867	0.742	–
NCI-H650	–	–	–	0.303	0.317	0.288	0.3	0.276	0.728	0.563	0.881	0.573	0.58	0.394	0.314	0.538	0.35	0.325	–
NCI-H661	–	–	–	0.521	0.522	0.491	0.417	0.327	0.668	0.933	0.833	0.593	0.651	0.765	0.795	0.819	0.755	0.728	–
NCI-H1299	1.03	1.03	1.03	–	–	–	–	–	1.05	1.08	1.03	1.02	0.966	–	–	–	–	–	0.976
NCI-H1395	1.37	0.999	1.18	0.696	0.742	0.684	0.645	0.532	–	–	–	–	–	0.742	0.565	0.773	0.62	0.537	–
NCI-H1563	–	–	–	–	–	–	–	–	0.807	0.85	0.816	0.687	0.803	–	–	–	–	–	–
NCI-H1648	–	–	–	0.477	0.51	–	0.445	0.45	–	–	–	–	–	0.418	0.457	0.714	0.317	0.324	–
NCI-H1703	1.19	1.24	0.933	–	–	–	–	–	0.348	0.208	0.231	0.223	0.234	–	–	–	–	–	0.863
NCI-H1792	0.565	0.61	0.593	0.587	0.434	0.56	0.499	0.135	0.927	0.888	1.05	0.851	0.315	–	–	–	–	–	0.439
NCI-H1793	0.389	–	0.454	0.457	0.493	0.436	0.329	0.259	–	–	–	–	–	0.62	0.977	0.839	0.598	0.325	0.361
NCI-H1944	1.06	0.846	1.04	0.427	0.46	0.405	0.443	0.303	–	–	–	–	–	0.538	0.554	0.597	0.399	0.326	1.05
NCI-H2170	0.532	0.251	0.484	0.459	0.491	0.463	0.421	0.31	–	–	–	–	–	0.731	0.663	0.914	0.551	0.484	0.639
NCI-H2228	0.687	0.752	0.841	–	–	–	–	–	0.933	0.807	0.922	0.696	0.537	0.714	0.48	0.401	0.566	0.413	1.04
NCI-H2342	–	–	–	0.793	0.687	0.68	0.662	0.603	–	–	–	–	–	0.795	0.622	0.712	0.662	0.714	–
SK-MES-1	1.25	1.3	1.13	0.362	0.36	0.304	0.307	0.223	–	–	–	–	–	1.13	1.09	1.15	0.828	0.833	1.27
SW 900	–	–	–	0.438	0.402	0.42	0.48	0.384	–	–	–	–	–	0.497	–	0.587	0.368	0.461	–
